US11245111B2, “Stable positive side material for all-organic flow battery” (UNIVERSITY OF SOUTHERN CALIFORNIA, priority 2017, dated 2022)

Test: Proto-desulfonation studies (heat treatment in sulfuric acid)
Type: physicochemical
Conditions: 1 M solution, 24 hours in 1M sulfuric acid at 60 degrees Celsius
Procedure: Proto-Desulfonation Studies.
We determined that the molecule was stable against proto-desulfonation, by heat treatment of 1 M solution of DHDMDS 24 hours in 1M sulfuric acid at 60 degrees Celsius. […] If decomposition occurred there would be the formation of a precipitate of an insoluble de-sulfonated material.

| SMILES | stability against proto-desulfonation (decomposition products observed) |
| --- | --- |
| Cc1cc(O)c(S(=O)(=O)O)c(C)c1O [DHDMBS, 2,5-dihydroxy-4,6-dimethylbenzene-1-sulfonic acid] | decomposes readily |
| Cc1c(O)c(C)c(S(=O)(=O)O)c(O)c1S(=O)(=O)O [DHDMDS, 2,5-dihydroxy-4,6-dimethylbenzene-1,3-disulfonic acid] | no decomposition products |
